Assays:
[1] = Dialysis of artificial plasma with 1 mM etidronate against dialysing liquid with 5 times greater etidronate concentration; assay type: in vitro ADME
Method: (§1) An artificial plasma was prepared with 1 mM of etidronate, regulating the ionic strength with 0.15 M NaCl. 25 ml of this solution were dialysed for 20 hours against a 1-l volume of a 0.15 M NaCl solution with a concentration of etidronate 5 times greater than that of the plasma. The pH of both solutions was adjusted to 7.4 using bicarbonate buffer.
(§2) 5-ml aliquots of the dialysing liquid were collected at times 0, 1, 3, 6 and 20 hours, and the quantity of etidronate was determined in each of them. Moreover, the concentration of etidronate in the artificial plasma was determined at times 0 and 20 hours.

[2] = Dialysis of artificial plasma with 5 mM etidronate against dialysing liquid without etidronate; assay type: in vitro ADME; details: after a 20-hour period, pH 7.4
Method: An artificial plasma was prepared with 5 mM of etidronate, regulating the ionic strength with 0.15 M NaCl. 25 ml of this solution were dialysed for 20 hours against a 1-l volume of a 0.15 M NaCl solution without etidronate (dialysing liquid model). The pH of both solutions was adjusted to 7.4 using bicarbonate buffer.
as §2

[3] = Dialysis of artificial plasma with 5 mM etidronate against dialysing liquid with the same concentration of etidronate; assay type: in vitro ADME; details: 20 hours dialysis; 5 mM etidronate in both plasma and dialysing liquid, pH 7.4
Method: as §1, with “with 5” for “with 1”, “with the same” for “with a”, “etidronate as” for “etidronate 5 times greater than that of”
as §2

[4] = Dialysis of artificial plasma with 1.5 mM phytate against dialysing liquid without phytate; assay type: in vitro ADME; details: after a 20-hour period, pH 7.4
Method: An artificial plasma (liquid with a composition similar to that of plasma) was prepared with 1.5 mM phytate, regulating the ionic strength with 0.15 M NaCl. 25 ml of this solution were dialysed for 20 hours against a 1-l volume of a 0.15 M NaCl solution without phytate (dialysing liquid model). The pH of both solutions was adjusted to 7.4 using bicarbonate buffer. 5-ml aliquots of the dialysing liquid were collected at times 0, 1, 3, 6 and 20 hours, and the quantity of phytate in each of them was determined. Moreover, the concentration of phytate in the artificial plasma was determined at times 0 and 20 hours.

[5] = Intravenous administration to rats on a diet without phytate; urinary and plasma phytate; assay type: in vivo, male Wistar rats; details: treated group, 3 intravenous doses of 0.61 mmol/kg (400 mg/kg) 12 hours apart
Method: 6 male Wistar rats approximately 250 g in weight were acclimated from 7 dias in the animal house (T=[…] and humidity=60±5%) with 12:12-hour light-darkness cycles. The rats were housed in Plexiglas cages, with one animal per cage, and fed with food and drink ad libitum.
Following the acclimation period, the animals were randomly divided into two groups with 3 rats each, a control group (with a diet without phytate, thereby simulating a post-dialysis physiological condition) and a treated group, which received 3 intravenous doses of 0.61 mmol/kg (400 mg/kg) separated by 12-hour periods. Following the last administration, 24-hour urine samples were collected in order to determine the phytate and, subsequently, the animals were anaesthesised and blood samples were collected.
The procedures used in this experiment were performed in accordance with Directive 86/609/EEC regarding the protection of animals used for experimental and scientific purposes.

[6] = Dialysis of artificial plasma with 1.5 mM phytate against dialysing liquid with the same concentration of phytate; assay type: in vitro ADME; details: 20 hours dialysis; 1.5 mM phytate in both plasma and dialysing liquid, pH 7.4
Method: (§3) An artificial plasma was prepared with 1.5 mM of phytate, regulating the ionic strength with 0.15 M NaCl. 25 ml of this solution were dialysed for 20 hours against a 1-l volume of a 0.15 M NaCl solution with the same concentration of phytate as the plasma. The pH of both solutions was adjusted to 7.4 using bicarbonate buffer. 5-ml aliquots of the dialysing liquid were collected at times 0, 1, 3, 6 and 20 hours, and the quantity of phytate was determined in each of them. Moreover, the concentration of phytate in the artificial plasma was determined at times 0 and 20 hours.

[7] = Dialysis of artificial plasma with 300 μM phytate against dialysing liquid with 5 times greater phytate concentration; assay type: in vitro ADME
Method: as §3, with “with 300 μM” for “with 1.5 mM”, “with a” for “with the same”, “phytate 5 times greater than that of” for “phytate as”

change of plasma concentration of etidronate (in words) ([1]; 20-hour period, dialysis liquid with etidronate concentration greater than that of the plasma)	etidronate from the dialysis liquid that enters into the artificial plasma ([1]; 20 hours dialysis, plasma 1 mM etidronate, dialysis liquid 5 times greater, pH 7.4)	increase of the concentration of etidronate in the artificial plasma ([1]; 20 hours dialysis, plasma 1 mM etidronate, dialysis liquid 5 times greater, from ratio of initial volumes and concentrations) [%]	quantity of etidronate in the dialysis solution, as share of the initial quantity in the artificial plasma [2] [%]	variation in the concentration of etidronate in the plasma and the dialysing liquid [3]	quantity of phytate in the dialysis solution, as share of the initial quantity in the artificial plasma [4] [%]	concentration at 24 h ([5]; male, Wistar, rat, plasma, blood 24 hours after last administration, read-out: plasma level of phytate) [ng/mL]	urinary excretion of phytate ([5]; 24-hour urine after last administration) [µg]	variation in the concentration of phytate in the plasma and the dialysing liquid [6]	change of plasma concentration of phytate (in words) ([7]; 20-hour period, dialysis liquid with phytate concentration greater than that of the plasma)	phytate from the dialysis liquid that enters into the artificial plasma ([7]; 20 hours dialysis, plasma 300 μM phytate, dialysis liquid 5 times greater, pH 7.4)	increase of the concentration of phytate in the artificial plasma ([7]; 20 hours dialysis, plasma 300 μM phytate, dialysis liquid 5 times greater, from ratio of initial volumes and concentrations) [%]	SMILES
increase the plasma concentration	up to 1.65%	330	95.6	no variations	–	–	–	–	–	–	–	CC(O)(P(=O)(O)O)P(=O)(O)O [etidronate, etidronic acid]
–	–	–	–	–	40	1000	72 ± 10	no variations	increase the plasma concentration	up to 0.75%	140	O=P(O)(O)O[C@H]1[C@H](OP(=O)(O)O)[C@@H](OP(=O)(O)O)[C@H](OP(=O)(O)O)[C@@H](OP(=O)(O)O)[C@H]1OP(=O)(O)O [phytate, myo-inositol hexaphosphate]

— patent publication US8778912B2, “Composition of dialysis liquid comprising crystallisation inhibitor substances” (Universitat de les Illes Balears, priority 2008, dated 2014)
